What all share (assay): DTP human tumour cell line panel, 48 h
The subject of test [1] is COLO 205 colon.
Test [2] concerns HT29 colon.
In test [3] the test system is UO-31 renal.
Test [4] concerns OVCAR-4 ovarian.
Test [5] has as its system RPMI-8226 leukemia.
For test [6], the system named is SR leukemia.
The subject of test [7] is MOLT-4 leukemia.
Test [8] concerns SF-268 CNS.
The test system of test [9] is OVCAR-5 ovarian.
Test [10] has as its system K-562 leukemia.

Where “and” joins values, the source holds several entries; their conditions need not be identical. Equal values may be shown once.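 Results reflect a 48-hour exposure of cells in 96-well plates to compound at five concentrations. GI50 = concentration required for 50% inhibition of growth. The concentration for full growth arrest is given as TGI.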

Usually TGI stands for the concentration giving total growth inhibition. Higher therefore signals lower sensitivity of the cells. A word on the GI50: it is the concentration that inhibits growth by half. Consider `CC(=O)O[C@H]1CC2C(C3CC[C@H](C(C)CCC(=O)O)[C@]31C)[C@H](OC(C)=O)C[C@@H]1CC3(CC[C@]21C)OOC1(CCC(C)CC1)OO3` (some centres not stated), for which the TGI was 8.21 µM and 4.4 µM in [1]; 12.5 µM and 10.4 µM in test [2]; 7.91 µM and 3 µM in [3]; 12.2 µM and 5.77 µM in test [4]; 6.9 µM and 4.79 µM in [5]; 3.82 µM and 3.94 µM in test [6]. Further, the TGI in test [7] was 10.6 µM and 3.79 µM; in test [8], 22.7 µM and 5.2 µM; in test [9], 22.7 µM and 16 µM; in test [10], 16.8 µM and 6.21 µM. For the same molecule, the GI50 in test [8] was 6.18 µM and 2.11 µM; in test [9] it was 10.6 µM and 4.54 µM.

Turning to `CC(C)Cc1ccc(C(C)/C=C2\CCC(CN(C)C)C2=O)cc1` (configuration not stated), the TGI worked out at 32.1 µM in [1]; 31.5 µM in test [2]; 23.4 µM in test [3]; 35.2 µM in test [4]; 9.94 µM in test [5]; 9.41 µM in [6]. Moreover, the concentration for total growth inhibition (TGI) worked out at 7.91 µM in test [7], 25.5 µM in test [8], 43.1 µM in test [9] and 8.04 µM in [10].

For the molecule `N#CC1CC(c2ccccc2)Nc2cc(Cl)ccc2N1` (configuration not stated), the TGI was greater than 83.4 µM in [1]; greater than 76.2 µM in [2]; greater than 100 µM in test [3]; greater than 100 µM in test [4]; greater than 100 µM in [5]; 59.8 µM in [6]. For the same molecule, the total growth inhibition concentration (TGI) in [7], in [8], in [9] and in test [10] was greater than 100 µM throughout.

Consider `CC(=O)NC1C(O[C@H]2C[C@H]3[C@@H]4CC=C5C[C@@H](O)CC[C@]5(C)[C@H]4CC[C@]3(C)[C@H]2[C@H](C)C(=O)CCC(C)C)OCC(O)C1O` (some centres not stated), for which the GI50 was 2.13 µM in [1]; 5.29 µM in [2]; 1.18 µM in test [3]; 5.31 µM in test [4]; 0.593 µM in test [5]; 1.56 µM in [6]. The GI50 is 1.22 µM in test [7], 2.31 µM in test [8], 6.34 µM in test [9] and 1.35 µM in test [10]. Also, the TGI in test [1] stood at 8.75 µM; in [2], 15.3 µM; in [3] it was 3.52 µM; in test [4], 41 µM; in test [5] it was 2.06 µM; in test [6] it was 22.8 µM. For the same molecule, the total growth inhibition concentration (TGI) in test [7] came out at 3.11 µM; in test [8] it was 11.2 µM; in [9] it was 20.1 µM; in [10], 5.16 µM.

In the case of `CCc1cccc(CC)c1NC(=O)/C(Cl)=C(/Cl)C(=O)O`, the TGI in test [1] is 30.3 µM; in test [2], 53.7 µM; in test [3], 47.3 µM; in test [4] it was 31.1 µM; in [5], greater than 79.4 µM; in test [6] it was greater than 73.6 µM. The total growth inhibition concentration (TGI) in test [7] was greater than 86.9 µM; in [8], 64.1 µM; in test [9], greater than 100 µM; in test [10] it was greater than 94.9 µM.

Regarding `COc1cc(/C=C2\NC(=O)C(Cc3cc(OC)c(OC)c(C)c3OC)N(C(C)=O)C2=O)c(OC)c(C)c1OC` (configuration not stated), the concentration for total growth inhibition (TGI) in test [1], in test [2], in [3], in test [4], in [5] and in test [6] was greater than 100 µM each time. For the same molecule, the total growth inhibition concentration (TGI) in [7], in test [8], in test [9] and in [10] was greater than 100 µM throughout.

Turning to `COC(=O)C(C(=O)C(=O)Nc1c(Cl)cc([N+](=O)[O-])cc1Cl)c1csc(-n2nc(C3=CCCCC3)cc2-c2ccccc2)n1` (configuration not stated), the concentration for total growth inhibition (TGI) in [1] is greater than 100 µM; in test [2], greater than 100 µM; in [3], greater than 100 µM; in test [4] it was greater than 100 µM; in test [5], greater than 100 µM; in test [6], 78 µM. Also, the TGI in test [7], in test [8], in [9] and in test [10] was greater than 100 µM each time.

Consider `COc1cc(-c2nccc3[nH]c(-c4ccc5cc[nH]c5c4)nc23)cc(OC)c1OC`, for which the 50% growth inhibitory concentration (GI50) in test [1] is less than 0.01 µM; in test [2] it was less than 0.01 µM; in test [3] it was less than 0.01 µM; in test [4] it was 0.0307 µM; in test [5], 0.0448 µM; in test [6], less than 0.01 µM. Also, the 50% growth inhibitory concentration (GI50) in test [7] was less than 0.01 µM; in [8], less than 0.01 µM; in test [9], 1.3 µM; in [10] it was less than 0.01 µM. The TGI in [1] was less than 0.01 µM; in test [2], 1.08 µM; in test [3], 2.93 µM; in test [4], 17.1 µM; in [5], 5.16 µM; in [6], 11.9 µM. The total growth inhibition concentration (TGI) stood at 7.26 µM in [7], 3.21 µM in test [8], 12.1 µM in [9] and 2.28 µM in test [10].

On to `CCSCC1CC(O)(c2ccccc2)C(c2ccccc2)C(c2ccc(F)cc2)O1` (configuration not stated), for which the GI50 is 1.81 µM in test [1]; 1.95 µM in test [2]; 1.71 µM in test [3]; 2.41 µM in test [4]; 1.14 µM in test [5]; 1.98 µM in test [6]. For the same molecule, the GI50 in test [7] is 1.61 µM; in test [8], 2.15 µM; in test [9], 2.08 µM; in test [10], 2.11 µM. Also, the total growth inhibition concentration (TGI) worked out at 3.84 µM in test [1]; 6.21 µM in test [2]; 6.46 µM in [3]; 8.04 µM in [4]; 5.95 µM in test [5]; 5.85 µM in test [6]. Besides, the TGI in test [7] turned out to be 4.91 µM; in test [8], 5.45 µM; in [9] it was 4.91 µM; in test [10], 6.53 µM.

For the molecule `COc1ccc(-c2c(C3=NCCCN3)nnn2-c2ccccc2)cc1`, the TGI in test [1], in test [2], in test [3], in [4], in test [5] and in [6] was greater than 100 µM throughout. Also, the TGI in [7], in test [8], in test [9] and in [10] was greater than 100 µM in each case.
